Laboratory results published in US20080176811A1, “NOVEL FLAVONE GLYCOSIDE DERIVATIVES FOR USE IN COSMETICS, PHARMACEUTICALS AND NUTRITION” (priority 2000, published 2008).
Entries after “also recorded” stand apart in the source; their conditions may differ. Read-outs that look alike come from different tables or passages of the source.

What was measured:
[1] = system: Dermal fibroblasts of human skin; test: Phototoxicity, MTT test after simulated sunlight (10 J UV-A/cm^2); assay type: cell-based
Method: Dermal fibroblasts of human skin were cultivated with increasing concentrations of retinol (Table 1), 6-O-naringin-(p-Cl-phenylacetic acid)ester (Table 2) and 6-O-naringin-(3-phenylpropionic acid)-ester (Table 3). The phototoxicity of the substances was measured by an MTT test. To determine phototoxicity, the treated cells were exposed to simulated sunlight corresponding to a dose of 10 J UV-A/cm^2. The vitality of untreated cells was put at 100% and all other values were related to that value.
The exposure of the cells was carried out with a sunlight simulator from the emission spectrum of which the UV-A component of the radiation was measured for quantification. The advantage of this experimental design is the fact that the complete spectrum of the sunlight is used so that the everyday situation is excellently simulated. By contrast, many other research laboratories use pure UV-A and for UV-B lamps.

MMP-1-mRNA = test: Light-induced expression of MMP-1-mRNA in skin models (Northern blot); assay type: cell-based; settings: for MMP 1 expression: 0 ppm unexposed = 100; for percentage change in the expression of MMP: by comparison with exposed, untreated cultures
Method: (§1) To this end, the quantity of mRNA was quantified for MMP1, TIMP and Colaα1. Skin models were treated with the test substances for 12 hours and then exposed to simulated sunlight corresponding to a dose of 10 J UV-A/cm^2. After another 48 hours in the presence of the active substances, the RNA of the cells was prepared and analyzed by Northern blots with specific gene probes. To monitor the quantity of RNA used in the experiments, Northern blots were carried out with an 18S-specific gene probe. To quantify the signal intensities, the autoradiograms were evaluated by densitometry and the values of the signals for MMP1, TIMP and Colα1, were related to the associated values of the 18S signals. The figures in Table 1 represent the densitometric quantification of the signals of a Northern blot after normalization thereof.

[2] = system: fungal tyrosinase (Sigma); test: Inhibition of tyrosinase activity (L-DOPA to dopachromium, absorption at 475 nm); assay type: biochemical; settings: for Residual tyrosinase activity in %: without active substance = 100%
Method: Tyrosinases physiologially catalyze an important step in the synthesis of melanin (L-dopa to L-dopaquinone which is further cyclized and re-reacted by a tyrosinase to dopachromium). Accordingly, inhibition of the tyrosinase can lead to a skin lightening effect.
The activity of fungal tyrosinase (Sigma) was determined in the presence of various concentrations of the active substances according to the invention by enzymatic reaction of LDOPA to dopachromium. The absorption maximum of dopachromium (red-brown) is at λ=475 nm. The linear increase in the absorption (A) of the dopachromium per unit of time (t) is a measure of the activity of the tyrosinase (ΔN/Δt). The activity of the tyrosinase in the absence of the active substances (ΔA1/Δt1) was used as reference (100%). Under analogous conditions, the residual tyrosinase activity was determined in the presence of the active substances (ΔA2/Δt2). Each measurement was carried out twice in parallel runs. The variation of the results of the method is ca.±10%.
50 mM KH2PO4 buffer in bidist. water (adjustment to pH 6.5 with 1 M aqueous KOH) 2.5 mM L-DOPA in bidist. water 340 U/ml tyrosinase stock solution in cold KH2PO4 buffer, pH 6.5. Stock solutions of the active substance to be tested in bidist. water or ethanol in which the concentration of the active substance was 10 times higher than indicated in the line “active substance concentration in the test system” under “results”.
Like the tyrosinase stock solution, the reaction cocktail was prepared just before the beginning of the test. The tyrosinase stock solution has to be kept in a refrigerator. The L-DOPA solutions should be stored in darkness and in tightly closed containers in the absence of oxygen. If it turns grey in color (oxidation by atmospheric oxygen), the solution must be freshly prepared.
33 μl tyrosinase stock solution 100 μl active substance stock solution reaction cocktail to 1000 μl
The activity of the tyrosinase in the absence of the active substances was used as reference (100%). All samples were thoroughly mixed in a Vibrofix before the beginning of the measurement. The pH value was monitored and if necessary was adjusted to pH 6.5. The measurement was carried out with a Kontron Uvikon 860 photometer. The absorption of the dopachromium was detected for 5 mins. at 25° C. at the absorption maximum X of 475 nm, the measuring time being 20-30 s.

fibroblasts = test: Collagen production at protein level, fibroblasts in three-dimensional culture system; assay type: cell-based; settings: 5 days, treated against untreated cultures
Method: On the sixth day, the quantity of collagen formed compared with non-collagen protein was determined via the incorporation of titrated protein.

TIMP-mRNA = test: Light-induced expression of TIMP-mRNA in skin models (Northern blot); assay type: cell-based; settings: for TIMP expression: 0 ppm unexposed = 100; for percentage change in the expression of TIMP: by comparison with exposed, untreated cultures
Method: as §1

Colα1-mRNA = test: Light-induced expression of Colα1-mRNA in skin models (Northern blot); assay type: cell-based; settings: for Collagen expression: exposed, 0 ppm unexposed = 100; for percentage change in the expression of Colα1: by comparison with exposed, untreated cultures
Method: as §1

`CC1=C(/C=C/C(C)=C/C=C/C(C)=C/CO)C(C)(C)CCC1` [retinol, reference compound] was tested, and the “Phototoxicity (in words)” value [1] was “toxic in very low concentrations”, the “Vitality (%; in brackets: SEM)” value ([1]; human, 0.0028 ppm) was 99 (7.4) % and the “Vitality (%; in brackets: SEM)” value ([1]; human, 0.014 ppm) was 95 (19.8) %. The “Vitality (%; in brackets: SEM)” value ([1]; human, 0.028 ppm) was 80 (25.9) %, the “Vitality (%; in brackets: SEM)” value ([1]; human, 0.14 ppm) was 28 (11.8) % and the “Vitality (%; in brackets: SEM)” value ([1]; human, 0.28 ppm) was 4 (2.1) %.

For `C[C@@H]1O[C@@H](O[C@H]2[C@H](Oc3cc(O)c4c(c3)O[C@H](c3ccc(O)cc3)CC4=O)O[C@H](COC(=O)CCc3ccccc3)[C@@H](O)[C@@H]2O)[C@H](O)[C@H](O)[C@H]1O` [6-O-naringin-(3-phenylpropionic acid)-ester], the “MMP 1 expression” value (MMP-1-mRNA; 10 ppm, exposed) was 167%, the “sunlight-induced expression of MMP-1 (in words)” value (MMP-1-mRNA; 100 ppm) was “reduced the sunlight-induced expression of MMP-1 to the level of the unexposed, untreated sample” and the “MMP 1 expression” value (MMP-1-mRNA; 100 ppm, exposed) was 87%. For the same molecule, the “percentage change in the expression of MMP” value (MMP-1-mRNA; 100 ppm) was −37%, the “Phototoxicity (in words)” value [1] was “only show toxic effects in relatively high concentrations” and the “Residual tyrosinase activity in %” value ([2]; active substance 0.005% (w/v in bidist H2O)) was 98.9%. The “Residual tyrosinase activity in %” value ([2]; active substance 0.05% (w/v in bidist H2O)) was 69.1%, the “Residual tyrosinase activity in %” value ([2]; active substance 0.5% (w/v in bidist H2O)) was 0.7% and the “IC 50 (tyrosinase)” value ([2]; w/v in bidist H2O) was 0.18%. The “Increase in collagen production” value (fibroblasts; 1 ppm) was 8%, the “Increase in collagen production” value (fibroblasts; 10 ppm) was 8% and the “Increase in collagen production” value (fibroblasts; 100 ppm) was 19%. For the same molecule, the TIMP expression (TIMP-mRNA; 10 ppm, exposed) was 104%, the “TIMP production (in words)” value (TIMP-mRNA; 100 ppm) was “increased TIMP production considerably” and the “increase in expression of TIMP” value (TIMP-mRNA; 100 ppm, exposed) was “around 35%”. The TIMP expression (TIMP-mRNA; 100 ppm, exposed) was 134%, the “percentage change in the expression of TIMP” value (TIMP-mRNA; 100 ppm) was 50% and the Collagen expression (Colα1-mRNA; 10 ppm) was 74%. The “expression of Colα1 (in words)” value (Colα1-mRNA; 100 ppm) was “increased to the level of the unexposed, untreated culture”, the Collagen expression (Colα1-mRNA; 100 ppm) was 99% and the “percentage change in the expression of Colα1” value (Colα1-mRNA; 100 ppm) was 64%.

With `CC1OC(OC2C(Oc3cc(O)c4c(c3)OC(c3ccc(O)cc3)CC4=O)OC(COC(=O)Cc3ccc(Cl)cc3)C(O)C2O)C(O)C(O)C1O` (stereo not shown) [6-O-naringin-(p-Cl-phenylacetic acid)-ester] the “MMP 1 expression” value (MMP-1-mRNA; 5 ppm, exposed (10 J UV-A/cm^2)) was 129%, the “sunlight-induced expression of MMP-1 (in words)” value (MMP-1-mRNA; 50 ppm) was “very effectively reduced” and the “MMP 1 expression” value (MMP-1-mRNA; 50 ppm, exposed) was 40%. The “percentage change in the expression of MMP” value (MMP-1-mRNA; 50 ppm) was −70%, the “Vitality (%; in brackets: SEM)” value ([1]; 5 ppm, 10 J UV-A/cm^2, untreated cells = 100%) was 115 (15) % and the “Vitality (%; in brackets: SEM)” value ([1]; 10 ppm, 10 J UV-A/cm^2, untreated cells = 100%) was 96 (17.2) %. The “Vitality (%; in brackets: SEM)” value ([1]; 50 ppm, 10 J UV-A/cm^2, untreated cells = 100%) was 81 (8.3) %, the “Vitality (%; in brackets: SEM)” value ([1]; 100 ppm, 10 J UV-A/cm^2, untreated cells = 100%) was 3 (1.7) % and the “Vitality (%; in brackets: SEM)” value ([1]; 500 ppm, 10 J UV-A/cm^2, untreated cells = 100%) was 3 (1.8) %. The “Phototoxicity (in words)” value ([1]; compared with retinol, 10 J UV-A/cm^2) was “only show toxic effects in relatively high concentrations”, the “Residual tyrosinase activity in %” value ([2]; active substance 0.01% (w/v in 98% ethanol)) was 45.1% and the “Residual tyrosinase activity in %” value ([2]; active substance 0.1% (w/v in 98% ethanol)) was 15.4%. For the same molecule, the “Increase in collagen production” value (fibroblasts; 5 ppm) was −3%, the “Increase in collagen production” value (fibroblasts; 50 ppm) was 41% and the TIMP expression (TIMP-mRNA; 5 ppm, exposed) was 62%. For the same molecule, the “expression of TIMP (in words)” value (TIMP-mRNA; 50 ppm) was “only slightly affected; also recorded: only a slight effect”, the TIMP expression (TIMP-mRNA; 50 ppm, exposed) was 77% and the “percentage change in the expression of TIMP” value (TIMP-mRNA; 50 ppm) was −15%. For the same molecule, the Collagen expression (Colα1-mRNA; 5 ppm) was 56%, the Collagen expression (Colα1-mRNA; 50 ppm) was 79% and the “percentage change in the expression of Colα1” value (Colα1-mRNA; 50 ppm) was 27%. For the same molecule, the “expression of Colα1 (in words)” value (Colα1-mRNA; 50 ppm, in relation to the exposed, untreated sample) was “distinctly increased”.
